Drawing on US12145925B2, “Phthalazine derivatives as inhibitors of PARP1, PARP2, and/or tubulin useful for the treatment of cancer” (THE REGENTS OF THE UNIVERSITY OF CALIFORNIA, priority 2016, dated 2024), this text covers IC50 for 1 molecule.

In the experiment the target is T1, PARP2 (Homo sapiens, UniProt Q9UGN5).
T1 construct: purchased BPS Bioscience 80552
Description: PARP2 enzymatic activity inhibition (BPS Bioscience PARP2 Assay Kit). It counts as biochemical. The settings on record: incorporation of biotinylated poly(ADP-ribose) onto histone proteins. As for the experimental part:
The half maximal inhibitory concentration (IC50) with respect to PARP2 inhibition was determined for each test compound by using BPS Bioscience PARP2 Assay Kit, according to the manufacturer's protocol (Cat #80552, San Diego, CA). This assay measures the incorporation of biotinylated poly(ADP-ribose) onto histone proteins in a 96-well strip well format. This assay is ideal for the determination of IC50 values of known or suspected PARP inhibitors. Briefly, stock solutions of each test compound were prepared in DMSO. Histone strip wells were incubated for 30 minutes at room temperature with 50 μl/well of 1×PARP Buffer to rehydrate the histones. Serial dilutions of either test compound were added to appropriate wells. Diluted PARP enzyme (0.5 Unit/well) was then added to the wells containing compounds, and incubated for 10 minutes at room temperature. […] Three types of control wells were also analyzed; i. A negative control without PARP was prepared to determine background absorbance. ii. […] The reactions were then stopped by adding 50 μl per well of 0.2M HCl or 5% Phosphoric Acid and read the absorbance at 450 nm. The IC50 values were determined by performing non-linear regression analysis fitting velocities and the logarithm of inhibitor concentrations to a sigmoidal dose response with a variable slope model using the GraphPad Prism 6.0 software. […]

Each structure is given as a SMILES string.

T1 sequence (Q9UGN5 whole entry): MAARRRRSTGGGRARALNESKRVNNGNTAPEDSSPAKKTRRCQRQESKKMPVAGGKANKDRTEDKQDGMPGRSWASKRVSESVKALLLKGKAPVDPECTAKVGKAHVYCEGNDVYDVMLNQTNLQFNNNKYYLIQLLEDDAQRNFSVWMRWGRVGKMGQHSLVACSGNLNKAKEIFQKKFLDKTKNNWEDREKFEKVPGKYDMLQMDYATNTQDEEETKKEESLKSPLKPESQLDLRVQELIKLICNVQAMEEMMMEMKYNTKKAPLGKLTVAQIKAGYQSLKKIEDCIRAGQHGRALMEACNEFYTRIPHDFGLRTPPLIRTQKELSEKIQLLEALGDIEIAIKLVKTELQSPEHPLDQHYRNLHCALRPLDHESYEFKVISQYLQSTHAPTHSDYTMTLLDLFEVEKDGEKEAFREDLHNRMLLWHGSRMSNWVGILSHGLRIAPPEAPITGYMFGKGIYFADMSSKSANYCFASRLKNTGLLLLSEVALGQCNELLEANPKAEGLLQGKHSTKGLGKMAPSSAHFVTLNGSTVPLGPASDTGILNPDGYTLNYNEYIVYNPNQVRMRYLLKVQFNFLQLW

As a reminder, the IC50 is the concentration at which inhibition is half-maximal. In the case of `COC(=O)Nc1nc2cc(-c3cc(Cc4n[nH]c(=O)c5ccccc45)ccc3F)ccc2[nH]1` [Ex 1.1, methyl (5-(2-fluoro-5-((4-oxo-3,4-dihydrophthalazin-1-yl)methyl)phenyl)-1H-benzimidazol-2-yl)carbamate], the IC50 was found to be 0.05 nM.
